Measurements as given in patent publication US20060154243A1 (priority 2003, published 2006).

Legend:
Type in all cases: binding, human
[1] = system: serum 1a (individual 1, early serum)
[2] = system: serum 1b (individual 1, late serum)
serum 2 (individual 2) = system: serum 2 (individual 2)
serum 6 (individual 6) = system: serum 6 (individual 6)
serum 37 (individual 37) = system: serum 37 (individual 37)
serum 62 (individual 62) = system: serum 62 (individual 62)
serum London = system: serum London
serum SARS-yellow = system: serum SARS-yellow
serum SARS-green = system: serum SARS-green
[3] = system: control serum LUMC (pooled serum of ten healthy hospital workers)
[4] = system: control serum Blood-bank (commercial negative donor pooled serum)
[5] = system: sera SARS-green, SARS-yellow, 1a, 1b, 2, 6, 37, 62 and London

| Sequence | Binding of serum 1a to linear peptides of Orf14 of SARS-CoV TOR2 [1] | Binding of serum 1b to linear peptides of Orf14 of SARS-CoV TOR2 [2] | Binding of serum 2 to linear peptides of Orf14 of SARS-CoV TOR2 (serum 2 (individual 2)) | Binding of serum 6 to linear peptides of Orf14 of SARS-CoV TOR2 (serum 6 (individual 6)) | Binding of serum 37 to linear peptides of Orf14 of SARS-CoV TOR2 (serum 37 (individual 37)) | Binding of serum 62 to linear peptides of Orf14 of SARS-CoV TOR2 (serum 62 (individual 62)) | Binding of serum London to linear peptides of Orf14 of SARS-CoV TOR2 (serum London) | Binding of serum SARS-yellow to linear peptides of Orf14 of SARS-CoV TOR2 (serum SARS-yellow) | Binding of serum SARS-green to linear peptides of Orf14 of SARS-CoV TOR2 (serum SARS-green) | Control serum LUMC linear peptides [3] | Control serum LUMC looped peptides [3] | Control Serum Blood-Bank Looped peptides [4] | Control serum Blood-bank linear peptides [4] | Recognition of the peptide by sera of individuals infected by SARS-CoV, form recognized [5] |
| --- | --- | --- | --- | --- | --- | --- | --- | --- | --- | --- | --- | --- | --- | --- |
| LPPCYNFLKEQHCQK | 0.3 | 0.2 | 0.2 | 0.2 | 0.3 | 0.2 | 0.1 | 0.0 | 0.0 | 0.2 | 0.6 | 0.9 | 0.2 | recognized in looped form |
| FLKEQHCQKASTQRE | 0.3 | 0.3 | 0.3 | 0.2 | 0.4 | 0.3 | 0.3 | 0.2 | 0.1 | 0.3 | 1.1 | 0.9 | 0.4 | recognized in looped form |
| STQREAEAAVKPLLA | 0.5 | 0.3 | 0.5 | 0.5 | 0.6 | 0.4 | 0.4 | 0.5 | 0.4 | 0.6 | 1.2 | 1.2 | 0.6 | recognized in looped form |
| KEQHCQKASTQREAE | 0.4 | 0.3 | 0.4 | 0.3 | 0.4 | 0.2 | 0.3 | 0.2 | 0.1 | 0.3 | 0.8 | 0.9 | 0.3 | recognized in looped form |
| KASTQREAEAAVKPL | 0.3 | 0.3 | 0.3 | 0.3 | 0.3 | 0.2 | 0.2 | 0.1 | 0.1 | 0.3 | 0.6 | 0.6 | 0.3 | recognized in looped form |
| PPCYNFLKEQHCQKA | 0.3 | 0.2 | 0.1 | 0.2 | 0.3 | 0.2 | 0.1 | 0.0 | 0.1 | 0.1 | 0.6 | 0.8 | 0.2 | recognized in looped form |
| HCQKASTQREAEAAV | 0.6 | 0.5 | 0.9 | 0.6 | 0.7 | 0.7 | 0.7 | 0.6 | 0.4 | 0.6 | 0.8 | 0.9 | 0.5 | recognized in looped form |
| LKEQHCQKASTQREA | 0.3 | 0.2 | 0.4 | 0.2 | 0.4 | 0.2 | 0.3 | 0.3 | 0.1 | 0.3 | 0.9 | 0.9 | 0.3 | recognized in looped form |
| NFLKEQHCQKASTQR | 0.4 | 0.3 | 0.4 | 0.4 | 0.5 | 0.3 | 0.4 | 0.3 | 0.3 | 0.7 | 0.7 | 0.6 | 0.5 | recognized in looped form |
| CYNFLKEQHCQKAST | 0.5 | 0.3 | 0.5 | 0.5 | 0.6 | 0.4 | 0.7 | 0.1 | 0.4 | 0.3 | 0.5 | 0.6 | 0.4 | recognized in looped form |
